Measurements: US20040086983A1, “Method for producing a heterocyclic compound and an aromatic carboxylic acid having one or more hydroxyl groups, and modified aromatic ring dioxygenase” (priority 2000, published 2004)

Columns and labels:
[1] = test system: modified biphenyl dioxygenase (modified bphA1::bphA2A3A4) expressed in E. coli (pKF2072); type: cell-based, Pseudomonas pseudoalcaligenes KF707; conditions: 5 mg substrate in 70 ml M9 medium, 28° C., 2 to 3 days, ratio of HPLC peak areas (max plot 230 to 350 nm)
Description: (§1) To start the conversion reaction, first, the necessary E. coli transformant cells were removed from the abovementioned glycerol stock culture with a platinum loop, suspended in 4 ml of LB medium containing 150 μg/ml ampicillin (Ap) and cultured at 28° C. for 7 to 8 hours at 175 rpm (pre-culture). […] The cells were recovered by centrifugation at 8,000 rpm for 5 minutes and suspended in 70 ml of M9 medium (supplemented with 150 μg/ml Ap, 0.4% (w/v) glucose, and 10 μg/ml thiamine) containing isopropyl-1-thio-β-D-galactopyranoside (IPTG) at a final concentration of 1 mM and 5 mg of a substrate, and the cultivation was further carried out at 28° C. for 2 to 3 days at 175 rpm. The substrate used was prepared by dissolving it in a solvent, such as ethanol, generally at a concentration of 10 mg/ml and added in an amount of 0.5 ml. On day 2 or 3 of the cultivation, the lipid was extracted by adding 70 ml of methanol and stirring for 30 minutes, and the supernatant was collected by centrifugation at 8,000 rpm for 5 minutes to obtain a crude lipid extract.
(§2) The HPLC analysis was carried out using a Puresil C18 column (4.6 mm×250 mm, Waters) at a rate of 1 ml/min. […] Conditions for development with solvents were as follows:
(§3) Solution A: water/methanol (50/50)
(§4) Solution B: methanol/2-propanol (60/40)
(§5) 0 to 5 min (solution A), 5 to 20 min (solution A)→(solution B) convex gradient (No. 3, Waters), 20 min−(solution B)
(§6) The conversion rate was expressed by a ratio of peak areas monitored at the wave length where the maximum absorbance was observed within the range from 230 to 350 nm (max plot).

[2] = test system: biphenyl dioxygenase derived from the strain Pseudomonas pseudoalcaligenes KF707 (bphA1A2A3A4) expressed in E. coli (pKF6622); type: cell-based; conditions: 5 mg substrate in 70 ml M9 medium; for conversion rate: 28° C., 2 to 3 days, ratio of HPLC peak areas (max plot 230 to 350 nm); for conversion products observed: HPLC analysis
Description: as §1, §2, §3, §4, §5, §6

[3] = test system: modified bphA1::bphA2A3A4 expressed in Streptomyces lividans TK21 (pIJ-2072); test: Conversion experiment using recombinant actinomycetes (pIJ-2072), HPLC analysis; type: cell-based, Pseudomonas pseudoalcaligenes KF707; conditions: substrate 0.1 mg/ml, cells 10 mg/ml, 30° C., 2 days
Description: Plasmid pKF2072 was double-digested with SacI/SmaI, after which a 4.06 kb fragment containing the modified bphA1::bphA2A3A4 was excised. Then, vector pIJ6021 for actinomycetes (see E. Takano, J. White, C. J. Thompson, M. J. Bibb, Gene, 166, 133-137, 1995) was double-digested with NdeI-HindIII, and then the abovementioned 4.06 kb SacI-HindIII fragment and a synthesized DNA 5′-[…]-3′ were added. After annealing, treatment with a Klenow fragment enzyme was followed by a ligation reaction. E. coli JM109 strain was transformed, after which the objective plasmid pIJ-2072 was obtained. The pIJ-2072 was designed so that the modified bphA1 gene is located immediately downstream of a powerful actinomycetes promoter PtipA and its ribosome binding site, being followed by the bphA2A3A4 gene. Namely, the 5′ binding site is […]. The underlined segment is the ribosome binding site, and the modified bphA1 gene starts at ATG from nucleotide 18 to nucleotide 20. This plasmid pIJ-2072 was used to transform actinomycetes Streptomyces lividans TK21 (see D. A. Hopwood, M. J. Bibb, K. F. Chater et al., Genetic Manipulation of Streptomyces: A laboratory Manual, The John Innes Institute, Norwich, 1985). […]

| Structure (SMILES) | conversion rate [1] | conversion rate [2] | converted into its diol derivative, yield [3] | conversion products observed [2] |
| --- | --- | --- | --- | --- |
| Cc1ccc(-c2ccccn2)cc1 [2-(p-tolyl)pyridine] | 96% | 61% |  |  |
| c1ccc(-c2ccc3ccccc3n2)cc1 [2-phenylquinoline] | 89% | 53% | ~100% |  |
| Cc1ccn(-c2ccccc2)n1 [3-methyl-1-phenylpyrazole] | 100% | 63% |  |  |
| c1ccc(-c2nc3ccccc3s2)cc1 [2-phenylbenzothiazole] | 81% | 36% |  |  |
| c1ccc(-c2cc3ccccc3[nH]2)cc1 [2-phenylindole] | 71% | 23% |  |  |
| c1ccc(-n2cccn2)cc1 [1-phenylpyrazole] | 47% |  |  | hardly observed |
| c1ccc(Cn2ccnc2)cc1 [1-benzylimidazole] | 97% | 43% |  |  |
| O=C1CC(c2ccccc2)c2ccccc21 (centres unmarked) [3-phenyl-1-indanone] | 97% | 93% |  |  |
| CCCCCCc1ccsc1 [3-n-hexylthiophene] | 100% | 99% |  |  |
| CCCCc1cc2ccccc2o1 [2-n-butylbenzofuran] | 100% | 90% |  |  |
| c1ccc(-n2cccc2)cc1 [1-phenylpyrrole] | 100% | 100% |  |  |
| c1ccc(Cc2cnsc2)cc1 [4-benzylisothiazole] | 65% | 27% |  |  |
| c1ccc(Cc2ccccn2)cc1 [2-benzylpyridine] | 57% | 11% |  |  |
| Cc1cccnc1-c1ccccc1 [3-methyl-2-phenylpyridine] | 16% |  |  | hardly observed |
| Oc1ccccc1-c1nc2ccccc2o1 [2-(2-hydroxyphenyl)-benzoxazole] | 39% | 25% |  |  |
| c1ccc(-c2nc3ccccc3o2)cc1 [2-phenylbenzoxazole] | 100% | 45% |  |  |
| c1ccc(-c2ccncn2)cc1 [4-phenylpyrimidine] | 100% |  |  | hardly observed |
